pEC50: −log10 of the molar value.

Consider 17 compounds from patent publication US20220033407A1, “N-(pyridin-2-ylsulfonyl)cyclopropanecarboxamide Derivatives and their Use in the Treatment of Disease” (NOVARTIS AG, priority 2018, published 2022).

In the assay the target is T1, delF508-CFTR-HRP (Homo sapiens, UniProt P13569, DEL508-508).
T1 construct: expressed in transfected cells
Kind of assay: Measurement of delF508-CFTR-HRP surface expression in CFBE41o- cells (HRP luminescence).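 As to DelF508-CFTR-HRP Amax %: percent efficacy relative to a reference CFTR corrector compound.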 As to conditions: for Emax: CFBE41o-, read-out: DelF508-CFTR-HRP Amax %; for pEC50: mean of at least two replicates. The assay is classed as cell-based. From the text: Measurement of delF508-CFTR-HRP Surface Expression in CFBE41o-Cells
This assay quantifies the cell surface expressions of the mutant CFTR channel using an extracellular HRP tag.
A cellular assay was developed to measure surface expression of horseradish peroxidase (HRP) tagged delF508-CFTR in the human bronchial epithelial immortalized CFBE41o-cell line (Phuan, P. W., et al, (2014) Molecular Pharmacology 86:42-51). Specifically, the HRP sequence was inserted into the fourth extracellular loop of delF508-CFTR and stably expressed in CFBE41o-cells. Cells were seeded in 384 well plate at a density of 5000 cells/well and incubated at 37° C. for 12 to 24 hours in medium (Gibco MEM #11095, 10% FBS, 10 mM HEPES, […], 200 μg/mL G418, 3 μg/mL Puromycin). The delF508-CFTR-HRP expression was induced with 500 ng/mL doxycycline (Sigma D-9891, dissolved in H2O and sterile filtered) in medium and the cells were incubated at 37° C. for 48 h. Old medium was removed and fresh medium was added containing 500 ng/mL doxycycline and unknown test compound at required test concentration in DMSO, not exceeding 0.5% final DMSO concentration. The highest concentration tested was 10 μM with a 10-point concentration response curve using a 3-fold dilution. After addition of compounds, the cells were incubated for 24 h at 37° C. On the final day, cells were washed four times in PBS containing 1 mM MgCl2 and 0.1 mM CaCl2. HRP-Substrate (SuperSignal ELISA Pico, Fisher #37069) 20 μl/well was added and the luminescence signal was determined (Viewlux, Perkin Elmer). Light was emitted upon addition of exogenous HRP-Substrate only when delF508-CFTR-HRP reached the cell surface and the HRP tag was accessible to the HRP-Substrate (note: HRP-Substrate cannot cross the lipid bilayer to reach delF508-CFTR-HRP misfolded within the cell).
The median activity for the lowest concentration of the compounds on each assay plate was calculated and this value was used to normalize the signal for each well on the respective plate. Three replicates at each concentrations for every compound were run to determine one EC50. The median value was determined and used to calculate compound activities as described below. Effective half maximal values (EC50) were calculated for each compound by performing logistic regression on measured dose-response data points using the equation: […]
where “Y” is the observed activity, “Bottom” is the lowest observed value, “Top” is the highest observed value, and the “Hill coefficient” gives the largest absolute value of the slope. The curve fitting is carried out by a curve fitting program implemented at GNF using Matlab (Mathworks). The dose response curves also were used to calculate Fold Change (FC) using the equation: […]
Compound efficacy relative to the reference compound 3-(6-(1-(2,2-difluorobenzo[d][1,3]dioxol-5-yl)cyclopropane-1-carboxamido)-3-methylpyridin-2-yl)benzoic acid was determined using the following formula: […]

T1 sequence (P13569 with tags, fused parts or gaps DEL508-508): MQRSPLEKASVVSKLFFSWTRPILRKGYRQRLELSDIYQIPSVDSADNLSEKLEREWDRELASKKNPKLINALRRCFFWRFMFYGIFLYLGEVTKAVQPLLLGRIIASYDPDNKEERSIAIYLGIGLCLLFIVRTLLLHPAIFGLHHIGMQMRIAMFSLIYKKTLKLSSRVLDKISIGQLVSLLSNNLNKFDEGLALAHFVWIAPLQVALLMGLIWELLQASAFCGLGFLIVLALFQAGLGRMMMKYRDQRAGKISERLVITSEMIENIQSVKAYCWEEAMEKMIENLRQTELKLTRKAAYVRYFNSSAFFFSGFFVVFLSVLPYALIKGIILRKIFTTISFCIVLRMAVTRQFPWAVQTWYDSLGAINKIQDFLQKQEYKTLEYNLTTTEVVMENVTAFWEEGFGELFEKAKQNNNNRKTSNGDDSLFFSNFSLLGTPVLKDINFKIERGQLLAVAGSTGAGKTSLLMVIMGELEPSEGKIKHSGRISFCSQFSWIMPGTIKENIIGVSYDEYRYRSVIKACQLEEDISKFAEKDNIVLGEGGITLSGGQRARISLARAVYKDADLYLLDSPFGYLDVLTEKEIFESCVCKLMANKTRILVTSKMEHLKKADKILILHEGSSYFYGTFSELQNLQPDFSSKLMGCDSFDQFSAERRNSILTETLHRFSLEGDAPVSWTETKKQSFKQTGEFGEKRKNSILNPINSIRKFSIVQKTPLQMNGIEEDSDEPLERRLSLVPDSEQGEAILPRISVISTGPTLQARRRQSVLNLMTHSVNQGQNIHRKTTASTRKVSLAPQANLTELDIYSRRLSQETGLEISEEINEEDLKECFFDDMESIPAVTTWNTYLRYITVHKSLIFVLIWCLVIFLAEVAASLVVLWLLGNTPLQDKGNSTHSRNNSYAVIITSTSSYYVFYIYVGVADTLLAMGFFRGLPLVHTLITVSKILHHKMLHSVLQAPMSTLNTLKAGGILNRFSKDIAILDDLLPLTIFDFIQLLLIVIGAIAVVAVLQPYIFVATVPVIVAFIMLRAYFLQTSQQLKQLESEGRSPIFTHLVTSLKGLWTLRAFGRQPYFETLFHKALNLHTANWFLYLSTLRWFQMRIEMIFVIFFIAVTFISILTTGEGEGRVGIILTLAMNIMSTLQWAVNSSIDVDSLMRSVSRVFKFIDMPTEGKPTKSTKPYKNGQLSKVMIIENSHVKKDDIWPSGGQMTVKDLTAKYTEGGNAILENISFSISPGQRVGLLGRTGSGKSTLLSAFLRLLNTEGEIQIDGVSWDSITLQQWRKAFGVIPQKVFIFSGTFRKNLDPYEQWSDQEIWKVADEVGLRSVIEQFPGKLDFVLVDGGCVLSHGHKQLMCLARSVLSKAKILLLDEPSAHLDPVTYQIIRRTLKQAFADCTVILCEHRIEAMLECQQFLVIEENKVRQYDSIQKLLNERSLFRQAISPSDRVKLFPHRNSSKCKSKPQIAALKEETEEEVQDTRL

A word on the pEC50: it is −log10 of the EC50, conventionally taken in molar units. The low end stands for a high EC50, the high end for a low EC50. Regarding `O=C(NS(=O)(=O)c1cccc(N2CC3CCC(C2)O3)n1)C1(Oc2cc(Cl)ccc2C2CC3(CCC3)C2)CC1` [Example 7-16, N-((6-(8-Oxa-3-azabicyclo[3.2.1]octan-3-yl)pyridin-2-yl)sulfonyl)-1-(5-chloro-2-(spiro[3.3]heptan-2-yl)phenoxy)cyclopropane-1-carboxamide], the Emax stood at 381% and the pEC50 is 5.91.

For the compound `O=C(NS(=O)(=O)c1cccc(N2CC[C@@H](O)C2)n1)C1(Oc2cc(Cl)ccc2N2CC3(CCCCC3)C2)CC1` [Example 9-6, (R)-1-(5-Chloro-2-(2-azaspiro[3.5]nonan-2-yl)phenoxy)-N-((6-(3-hydroxypyrrolidin-1-yl)pyridin-2-yl)sulfonyl)cyclopropanecarboxamide], the Emax came out at 388% and the pEC50 was 6.04.

Consider `O=C(NS(=O)(=O)c1cccc(N2CC[C@H](O)C2)n1)C1(Oc2cc(C(F)(F)F)ccc2N2CC3(CCC3)C2)CC1` [Example 9-25, (S)-1-(2-(2-Azaspiro[3.3]heptan-2-yl)-5-(trifluoromethyl)phenoxy)-N-((6-(3-hydroxypyrrolidin-1-yl)pyridin-2-yl)sulfonyl)cyclopropanecarboxamide], for which the Emax was determined as 408% and the pEC50 was 5.75.

Turning to `O=C(NS(=O)(=O)c1cccc(N2CC[C@H](O)C2)n1)C1(Oc2cc(Cl)ccc2N2CC3(COC3)C2)CC1` [Example 9-23, (S)-1-(5-Chloro-2-(2-oxa-6-azaspiro[3.3]heptan-6-yl)phenoxy)-N-((6-(3-hydroxypyrrolidin-1-yl)pyridin-2-yl)sulfonyl)cyclopropanecarboxamide], the Emax stood at 13.7% and the pEC50 is 5.00.

For the compound `O=C(NS(=O)(=O)c1cccc(N2CC[C@H](O)C2)n1)C1(Oc2cc(Cl)ccc2C2CC3(CCC3)C2)CCCC1` [Example 7-20, (S)-1-(5-Chloro-2-(spiro[3.3]heptan-2-yl)phenoxy)-N-((6-(3-hydroxypyrrolidin-1-yl)pyridin-2-yl)sulfonyl)cyclopentane-1-carboxamide], the Emax was 280% and the pEC50 is 6.27.

As to `O=C(NS(=O)(=O)c1cccc(N2CC[C@H](O)C2)n1)C1(Oc2cc(Cl)ccc2N2CC3(CCCCO3)C2)CC1` [Example 9-8, (S)-1-(5-Chloro-2-(5-oxa-2-azaspiro[3.5]nonan-2-yl)phenoxy)-N-((6-(3-hydroxypyrrolidin-1-yl)pyridin-2-yl)sulfonyl)cyclopropanecarboxamide], the Emax amounted to 204% and the pEC50 was 5.39.

`CC1(O)CCN(c2cccc(S(=O)(=O)NC(=O)C3(Oc4cc(Cl)ccc4C4CC5(CCC5)C4)CCCC3)n2)C1` (single isomer, unassigned) [Example 7-18-2, 1-(5-Chloro-2-(spiro[3.3]heptan-2-yl)phenoxy)-N-((6-(3-hydroxy-3-methylpyrrolidin-1-yl)pyridin-2-yl)sulfonyl)cyclopentane-1-carboxamide]: the “DelF508-CFTR-HRP Amax %” value is 371.9% and the pEC50 was 5.78.

As for `Cc1ccc(OC2CCCC2)c(OC2(C(=O)NS(=O)(=O)c3cccc(N4CCC(C)(C#N)CC4)n3)CC2)c1` [Example 6-2, N-((6-(4-cyano-4-methylpiperidin-1-yl)pyridin-2-yl)sulfonyl)-1-(2-(cyclopentyloxy)-5-methylphenoxy)cyclopropanecarboxamide], the Emax was 289% and the pEC50 is 5.66.

For the compound `Cc1ccc(C2CCCCC2)c(OC2(C(=O)NS(=O)(=O)c3cccc(N4CCC(NC(=O)OC(C)(C)C)CC4)n3)CC2)c1` [Example 2-43, Tert-butyl (1-(6-(N-(1-(2-cyclohexyl-5-methylphenoxy)cyclopropanecarbonyl)sulfamoyl)pyridin-2-yl)piperidin-4-yl)carbamate], the Emax turned out to be 556% and the pEC50 is 5.95.

Regarding `O=C(NS(=O)(=O)c1cccc(N2CC[C@H](O)C2)n1)C1(Oc2cc(Cl)ccc2N2CC3(CCOCC3)C2)CC1` [Example 9-36, (S)-1-(5-Chloro-2-(7-oxa-2-azaspiro[3.5]nonan-2-yl)phenoxy)-N-((6-(3-hydroxypyrrolidin-1-yl)pyridin-2-yl)sulfonyl)cyclopropanecarboxamide], the Emax stood at 52% and the pEC50 was 5.77.

For `CC1(C)CCCN(c2ccc(Cl)cc2OC2(C(=O)NS(=O)(=O)c3cccc(N4CC[C@@](C)(O)C4)n3)CC2)C1` [Example 9-30, (R)-1-(5-Chloro-2-(3,3-dimethylpiperidin-1-yl)phenoxy)-N-((6-(3-hydroxy-3-methylpyrrolidin-1-yl)pyridin-2-yl)sulfonyl)cyclopropanecarboxamide], the Emax stood at 590% and the pEC50 was 6.23.

On to `CC(C)(C)C1CCC(Nc2ccc(Cl)cc2OC2(C(=O)NS(=O)(=O)c3cccc(N4CC[C@H](O)C4)n3)CC2)CC1` (single isomer, unassigned) [Example 9-5-1], for which the “DelF508-CFTR-HRP Amax %” value is given as 93.6% and the pEC50 was 6.02.

Take `CC1(C)CCN(c2ccc(Cl)cc2OC2(C(=O)NS(=O)(=O)c3cccc(N4CCC5(CC4)OCc4ccccc45)n3)CC2)CC1` [Example 10-8, N-((6-(3H-spiro[isobenzofuran-1,4′-piperidin]-1′-yl)pyridin-2-yl)sulfonyl)-1-(5-chloro-2-(4,4-dimethylpiperidin-1-yl)phenoxy)cyclopropanecarboxamide]: the Emax amounted to 307% and the pEC50 was 6.37.

Consider `Cc1ccc(C2CCCCC2)c(OC2(C(=O)NS(=O)(=O)c3cccc(N4CCC5(CCCC5N)CC4)n3)CC2)c1` (single isomer, unassigned) [Example 2-32-2, N-((6-(1-Amino-8-azaspiro[4.5]decan-8-yl)pyridin-2-yl)sulfonyl)-1-(2-cyclohexyl-5-methylphenoxy)cyclopropanecarboxamide], for which the “DelF508-CFTR-HRP Amax %” value is reported as 283% and the pEC50 was 5.72.

Regarding `CC1(C)CCN(c2ccc(Cl)cc2OC2(C(=O)NS(=O)(=O)c3cccc(N)n3)CC2)CC1` [Example 9-45, N-((6-Aminopyridin-2-yl)sulfonyl)-1-(5-chloro-2-(4,4-dimethylpiperidin-1-yl)phenoxy)cyclopropane-1-carboxamide], the Emax worked out at 189% and the pEC50 is 5.66.

Consider `CC1(O)CCCN(c2cccc(S(=O)(=O)NC(=O)C3(Oc4cc(Cl)ccc4C4CC5(CCC5)C4)CC3)n2)C1` (single isomer, unassigned) [Example 7-8-1, 1-(5-chloro-2-(spiro[3.3]heptan-2-yl)phenoxy)-N-((6-(3-hydroxy-3-methylpiperidin-1-yl)pyridin-2-yl)sulfonyl)cyclopropanecarboxamide], for which the “DelF508-CFTR-HRP Amax %” value is listed as 535.5% and the pEC50 is 6.00.

On to `CC1(C)CCN(c2ccc(C(F)(F)F)cc2OC2(C(=O)NS(=O)(=O)c3cccc(N4CC[C@H](O)C4)n3)CC2)CC1` [Example 9-26, (S)-1-(2-(4,4-Dimethylpiperidin-1-yl)-5-(trifluoromethyl)phenoxy)-N-((6-(3-hydroxypyrrolidin-1-yl)pyridin-2-yl)sulfonyl)cyclopropanecarboxamide], for which the Emax was determined as 329% and the pEC50 is 5.74.
